Paper PMC4125160, “Neurotoxicity and Mode of Action of N, N-Diethyl-Meta-Toluamide (DEET)” (PLoS ONE, 2014)
Where two headings read alike, the source gives them in different places.

Assays:
[1] = system: firefly light organ; assay: In vivo assay for effects on firefly light organ; design: species or system Photinus pyralis
Experimental: Adult firefly beetles (Photinus sp.) were collected locally (Nashville, TN) and housed in well-ventilated chambers with tree leaves. The animals had free access to 10% sucrose solution. Chemicals were dissolved in absolute ethanol and 1 µL was topically applied directly to the ventral light organ with the use of a manual pipettor. Prior to DEET application, the beetles were immobilized with molten parafilm and were mounted on corrugated cardboard for the duration of the study. Due to the time required for bioactivation of CDM, insects were treated with 1 µL of CDM and were released back into the holding chamber for three hours. After three hours, they were mounted in the previously described manner and monitored for activation of the lantern. Photographs were captured with a handheld camera (Canon PowerShot SX110 IS). Pictures were captured within five minutes, four hours, and 10 minutes post application for DEET, CDM, and propoxur, respectively. DEET- and propoxur-treated insects were monitored for at least 1 hour post exposure to ensure the response was not slow acting. The original photographs were cropped and background shadows were enhanced to increase detail of the insect using Adobe Photoshop PS5 (Adobe Systems, San Jose, CA, USA). The color or brightness of the light organ was not manipulated in any way during post-processing of the image.

[2] = system: housefly larval central nervous system; assay: Neurophysiological recordings of CNS nerve discharge in housefly larvae; design: species or system Musca domestica; conditions: for EC50: Musca domestica
Experimental: Neurophysiological recordings were performed on the central and peripheral nervous systems of larval Musca domestica. Glass pipette electrodes were pulled from borosilicate glass capillaries on a P-1000 Flaming/Brown micropipette puller (Sutter Instrument, Novato CA, USA). For CNS recordings, it was first excised from the larvae and placed in a separate dish with physiological saline (200 µL) containing: 157 mM NaCl, 3 mM KCl, 2 mM CaCl2, and 4 mM HEPES, pH = 7.25. The CNS was manually transected posterior to the cerebral lobes to disrupt the blood-brain barrier and enhance chemical penetration. Any convenient peripheral nerve trunks were pulled into a recording suction electrode. Amplification and digitization of descending electrical activity originating from the CNS were converted on-line into a rate plot, expressed in Hz (MacLab analog to digital converter hardware and LabChart 7 software, ADInstruments, Colorado Springs, CO, USA). […] After a baseline was established, the CNS preparation was directly exposed to test compound by adding 200 µL of solution to the bath containing 200 µL of saline. The final concentration of solvent in the bath was 0.1% DMSO. Each concentration was recorded for 3–5 min prior to the addition of the next drug concentration. […] Each drug concentration was replicated 3-5 times.

[3] = system: neuromuscular junction of third instar Musca domestica larvae; assay: Neuromuscular junction recordings of evoked EPSP in housefly larvae; conditions: for effect on evoked EPSP in words: toluene at 5 mM
Experimental: Neuromuscular recordings of the evoked excitatory postsynaptic potential (EPSP) were performed on third instar housefly larvae, essentially as described previously. In short, the maggot was immobilized with pins, and the nervous and musculature systems were exposed. The preparation was then bathed in saline containing: 140 mM NaCl, 0.75 mM CaCl2, 5 mM KCl, 4 mM MgCl2, 5 mM NaHCO3, and 5 mM HEPES (pH = 7.25). The nerves were severed from the base of the CNS, which was removed, and a lateral nerve trunk innervating the longitudinal muscles was drawn into a suction electrode filled with saline. Stimuli were applied at 1 volt and of 0.2 sec duration to elicit a contraction from the longitudinal muscles. The stimulated muscle was then impaled with a recording glass capillary microelectrode filled with 1 M KCl to record effects on the evoked EPSP and membrane potential. Signals from all recordings were amplified and digitized with the use of the MacLab. Chemicals were applied to the preparation directly by hand pipetting 150 µL of solution into the bath volume of 150 µL.

[4] = target: Musca domestica AChE (MdAChE) (Musca domestica, UniProt Q7YWJ9); assay: AChE inhibition, Ellman assay; format: biochemical
From the text: (§1) In vitro biochemical assays utilized five acetylcholinesterase (AChE) enzymes. Recombinant human AChE (hAChE) was purchased from a commercial source (lyophilized powder, Sigma C1682, St. Louis, MO, USA). Homogenates to prepare Anopheles gambiae AChE (AgAChE) were obtained from the wild type G3 strain and the resistant AKRON strain (BEI Resources; http://www.beiresources.org/). AKRON mosquitoes (from Benin and donated by M. Akogbeto) have both knockdown resistance (kdr) to pyrethroids (L1014F sodium channel mutation) and the G119S AChE mutation (ace-1R), which confers resistance to carbamates, [15]. Both strains were cultured in the Emerging Pathogens Institute, University of Florida, Gainesville, FL, USA from eggs provided by the Center for Disease Control, Atlanta, GA, USA. Homogenates were also used to prepare Aedes aegypti AChE (AeAChE) from mosquitoes provided by the CMAVE, USDA-ARS, Gainesville, FL, USA; Musca domestica AChE (MdAChE) from flies cultured in the Department of Entomology and Nematology, Medical Entomology Laboratory, University of Florida, Gainesville, FL, USA); and Drosophila melanogaster AChE (DmAChE) from flies (Oregon-R strain) cultured in the Emerging Pathogens Institute, University of Florida, Gainesville, FL, USA. Homogenate enzymes were prepared from groups of ten non-blood fed adult female mosquitoes, five whole bodied Drosophila, or three Musca heads homogenized in 1 mL of ice-cold sodium phosphate buffer (0.1 M sodium phosphate, pH 7.8) with an electric motor driven glass tissue homogenizer. The homogenate was centrifuged at 5000×g using a Sorvall Fresco refrigerated centrifuge at 4 °C for 5 minutes. The supernatant was used as the enzyme source, and all enzyme preparations contained 0.3% (v/v) triton X-100 and 1 mg/ml BSA. Prior to use, the recombinant human enzyme was diluted 500-fold into sodium phosphate buffer containing triton X-100 and 1 mg/ml BSA.
(§2) Inhibition of AChE was determined using the Ellman assay and was based on the method outlined in Carlier et al.. Briefly, enzyme solution (10 µL) was added to each well of a 96-well micro assay plate, along with 20 µL of inhibitor in DMSO/saline suspension, and 150 µL of sodium phosphate buffer. Final concentration of DMSO was 0.1% in all incubations. The plate was incubated at 25 °C for ten minutes. Ellman assay reagents, acetylthiocholine iodide (0.4 mM, final concentration) and 5,5′-dithiobis-(2-nitro)benzoic acid (0.3 mM, final concentration), were prepared fresh and 20 µL was added to the enzyme to initiate the reaction. Changes in absorbance were recorded by a DYNEX Triad spectrophotometer (DYNEX Technologies, Chantilly, VA, USA) at 405 nm. Enzyme concentrations used were within the linear range, therefore eliminating the need for protein quantification.

[5] = target: T1, Recombinant human AChE (hAChE) (Homo sapiens, UniProt P22303); assay: AChE inhibition, Ellman assay; format: biochemical; conditions: mean, n = 3; read-out: IC50 (95% CI)
T1 construct: purchased Sigma C1682
From the text: as §1, §2

[6] = target: T2, AKRON AgAChE (G119S AChE mutation) (Anopheles gambiae, UniProt Q869C3, G280S); assay: AChE inhibition, Ellman assay; format: biochemical
T2 construct: Homogenate enzymes were prepared from groups of ten non-blood fed adult female mosquitoes; from tissue; host or cells: whole adult female mosquitoes, AKRON strain, supernatant of homogenate
From the text: as §1, §2

Row | SMILES | lantern illumination ([1]; 5 µg topically on light organ) | period the lantern remained active ([1]; 5 µg, majority of individuals) [s] | lantern illumination ([1]; 1 and 2.5 µg topically on light organ) | interval of repeated activation of the lantern ([1]; controls flashed every 45-90 seconds) [s] | threshold concentration for neuroexcitation [2] | EC50 ([2]; abstract, read-out: EC50, excitatory effects) [µM] | time to complete block ([3]; 10 mM added to the bath) | change in muscle membrane resting potential ([3]; any concentration) | concentration at which half of the preparations were blocked ([3]; evoked EPSP, all or none response) | effect on evoked EPSP in words [3] | IC50 ([4]; mean, n = 3; read-out: IC50 (95% CI)) [µM] | IC50 [5] [µM] | IC50 [6] [µM] | lantern illumination ([1]; 1 µg topically on light organ) | EC50 ([2]; Fig. 3C, read-out: EC50 for increasing spike frequency in the CNS) [µM] | fold more potent than the IC50 value of DEET to MdAChE ([4]; mean IC50) | IC50 ([4]; read-out: IC50 (95% CI); mean, n = 3) [µM]
1 | CCN(CC)C(=O)c1cccc(C)c1 [DEET, N, N-diethyl-meta-toluamide] | Bright and complete illumination of the lantern | 10 to 60 | Faint illumination in circumscribed areas of the lantern | 10 to 20 | about 50 µM | 120 | approximately 120 seconds | Little or no change | ca. 7 mM | complete and rapid block | 6000 | 12000 | > 10000 | – | – | – | –
2 | CNC(=O)Oc1ccccc1OC(C)C [propoxur] | – | – | – | – | – | – | – | – | – | no effect | – | 1.44 | > 100 | no changes in lantern illumination | 0.344 | 40,000 fold | 0.13
